# According to patent publication US20170369444A1, “INHIBITORS OF HISTONE DEMETHYLASES” (Gilead Sciences, Inc., priority 2014, published 2017):
# Key:
# KDM4C (JMJD2C) = target: T1, KDM4C (JMJD2C) (Homo sapiens, UniProt Q9H3R0); assay: Histone lysine demethylase AlphaLISA assay, KDM4C; type: biochemical; settings: in vitro enzyme, read-out: KDM4C IC50 (HDME Inhibition)
# T1 construct: 1-349; host or cells: E. coli
# T1 sequence (Q9H3R0 1-349): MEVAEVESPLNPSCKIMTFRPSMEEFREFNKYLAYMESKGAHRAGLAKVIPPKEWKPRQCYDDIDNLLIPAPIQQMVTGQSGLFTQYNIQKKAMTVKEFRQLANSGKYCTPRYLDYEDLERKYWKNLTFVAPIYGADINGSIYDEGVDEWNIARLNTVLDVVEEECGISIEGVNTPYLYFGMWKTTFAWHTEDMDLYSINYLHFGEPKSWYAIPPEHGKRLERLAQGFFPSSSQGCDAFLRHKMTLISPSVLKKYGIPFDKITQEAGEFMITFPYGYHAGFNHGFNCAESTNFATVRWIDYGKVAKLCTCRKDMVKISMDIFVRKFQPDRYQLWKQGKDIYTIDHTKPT
# KDM5B (PLU-1) = target: T2, KDM5B (PLU-1) (Homo sapiens, UniProt Q9UGL1); assay: Histone lysine demethylase AlphaLISA assay, KDM5B; type: biochemical; settings: in vitro enzyme, read-out: KDM5B IC50 (HDME Inhibition)
# T2 construct: 1-809; host or cells: E. coli
# T2 sequence (Q9UGL1 1-809): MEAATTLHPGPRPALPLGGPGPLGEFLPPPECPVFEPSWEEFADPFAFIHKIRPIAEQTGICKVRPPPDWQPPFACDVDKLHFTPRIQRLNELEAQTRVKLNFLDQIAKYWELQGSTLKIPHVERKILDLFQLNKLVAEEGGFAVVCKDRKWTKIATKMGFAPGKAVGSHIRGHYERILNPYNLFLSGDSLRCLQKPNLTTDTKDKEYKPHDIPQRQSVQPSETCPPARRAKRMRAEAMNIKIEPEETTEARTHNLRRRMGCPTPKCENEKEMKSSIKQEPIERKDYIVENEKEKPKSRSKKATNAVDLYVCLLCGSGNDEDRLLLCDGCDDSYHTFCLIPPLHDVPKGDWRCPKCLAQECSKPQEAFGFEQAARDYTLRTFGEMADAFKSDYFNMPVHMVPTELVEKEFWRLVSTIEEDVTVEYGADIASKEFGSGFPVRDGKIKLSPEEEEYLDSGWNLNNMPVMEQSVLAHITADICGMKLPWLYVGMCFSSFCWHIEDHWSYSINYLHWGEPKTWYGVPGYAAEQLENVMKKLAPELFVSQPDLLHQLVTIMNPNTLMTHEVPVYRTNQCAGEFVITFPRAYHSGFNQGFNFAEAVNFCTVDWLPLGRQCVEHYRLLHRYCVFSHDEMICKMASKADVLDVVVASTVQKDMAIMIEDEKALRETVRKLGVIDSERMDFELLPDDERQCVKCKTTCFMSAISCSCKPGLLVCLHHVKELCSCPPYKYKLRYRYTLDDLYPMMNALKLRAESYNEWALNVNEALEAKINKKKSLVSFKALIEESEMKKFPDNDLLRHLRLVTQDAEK
# KDM6A (UTX) = target: T3, KDM6A (UTX) (Homo sapiens, UniProt O15550); assay: Histone lysine demethylase AlphaLISA assay, KDM6A; type: biochemical; settings: in vitro enzyme, read-out: KDM6A IC50 (HDME Inhibition)
# T3 construct: 919-1401; host or cells: E. coli
# PHF8 (KDM7) = PHF8 (KDM7) (Homo sapiens, UniProt Q9UPP1); assay: Histone lysine demethylase AlphaLISA assay, PHF8; type: biochemical; settings: in vitro enzyme, read-out: PHF8 IC50 (HDME Inhibition)
# KDM2B (FBXL10) = target: T4, KDM2B (FBXL10) (Homo sapiens, UniProt Q8NHM5); assay: Histone lysine demethylase AlphaLISA assay, KDM2B; type: biochemical; settings: in vitro enzyme, read-out: KDM2B IC50 (HDME Inhibition)
# T4 construct: 1-650; purchased BPS Bioscience, US; host or cells: Bac (baculovirus/insect cells)
# T4 sequence (Q8NHM5 1-650): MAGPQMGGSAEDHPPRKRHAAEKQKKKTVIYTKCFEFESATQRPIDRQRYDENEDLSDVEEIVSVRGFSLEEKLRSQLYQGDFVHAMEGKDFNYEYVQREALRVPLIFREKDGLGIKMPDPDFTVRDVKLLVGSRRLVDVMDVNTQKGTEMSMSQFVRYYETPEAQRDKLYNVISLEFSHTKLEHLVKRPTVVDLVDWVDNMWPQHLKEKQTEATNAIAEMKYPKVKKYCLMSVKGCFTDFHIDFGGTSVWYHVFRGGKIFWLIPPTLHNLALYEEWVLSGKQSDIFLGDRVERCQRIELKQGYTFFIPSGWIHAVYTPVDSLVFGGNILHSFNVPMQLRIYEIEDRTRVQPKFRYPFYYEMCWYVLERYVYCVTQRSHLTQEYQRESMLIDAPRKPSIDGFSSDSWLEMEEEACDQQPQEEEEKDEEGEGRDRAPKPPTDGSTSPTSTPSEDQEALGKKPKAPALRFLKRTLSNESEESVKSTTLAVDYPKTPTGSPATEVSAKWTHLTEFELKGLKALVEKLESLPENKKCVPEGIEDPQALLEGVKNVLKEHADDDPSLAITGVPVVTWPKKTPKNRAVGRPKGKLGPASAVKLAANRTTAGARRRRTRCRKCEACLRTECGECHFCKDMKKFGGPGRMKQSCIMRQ
# [1] = test system: H3K4me3 mark in U2OS cells; assay: Histone lysine demethylase immunofluorescence assay, non-transfected U2OS cells; type: cell-based; settings: Homo sapiens, 20 hours incubation, read-out: IC50 value, staining of the H3K4me3 mark in cells
# Procedure: Generally, the cells are incubated with compounds, washed and incubated with a methylation specific antibody before imaging. IC50 values are determined by measurement of the H3K4me3 staining.
# Histone Lysine Demethylase Immunofluorescence Assays for IC50 value Determination, non-transfected cells
# U2OS cells are harvested and seeded into multi well plates into media containing compound. The media is DMEM containing 5% FBS and pen/strep. 20 hours after incubation of cells with compounds, the cells are washed once in PBS, harvested by fixation with formaldehyde 4% aqueous solution, and washed in PBS. Subsequently, the cells are permeabilized in PBS with 0.2% Triton X-100. Blocking is performed in PBS with 0.2% Triton X-100 and 5% FBS. The cells are incubated with αH3K4me3 primary antibody (Cell Signaling, #9751S) in blocking solution over night at 4° C. After incubation with primary antibody, the cells are washed with PBS, incubated with secondary antibody (Alexa fluor 594 goat anti rabbit IgG, Invitrogen, A11012) and Hoechst, (Sigma, 33342) in blocking solution, and washed again with PBS. Finally, PBS is added and high throughput imaging and analysis are performed by an IN Cell Analyzer 1000 (GE Healthcare). IC50 values are determined based on an average measure of the staining of the H3K4me3 mark in cells.
# T3 sequence (O15550 919-1401): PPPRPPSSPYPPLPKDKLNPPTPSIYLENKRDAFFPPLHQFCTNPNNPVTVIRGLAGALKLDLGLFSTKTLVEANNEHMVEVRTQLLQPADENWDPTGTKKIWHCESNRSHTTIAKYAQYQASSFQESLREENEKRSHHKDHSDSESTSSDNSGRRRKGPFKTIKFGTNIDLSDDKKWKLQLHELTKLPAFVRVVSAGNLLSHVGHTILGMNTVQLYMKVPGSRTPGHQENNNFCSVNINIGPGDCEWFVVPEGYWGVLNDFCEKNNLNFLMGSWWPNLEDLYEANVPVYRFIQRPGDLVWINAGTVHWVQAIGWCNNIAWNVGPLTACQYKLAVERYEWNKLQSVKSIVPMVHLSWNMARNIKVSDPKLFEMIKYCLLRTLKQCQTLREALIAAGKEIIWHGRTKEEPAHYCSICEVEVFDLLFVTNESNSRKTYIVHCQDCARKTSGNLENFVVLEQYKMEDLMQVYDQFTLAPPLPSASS
# Chain of PHF8 (KDM7) (Q9UPP1 whole entry): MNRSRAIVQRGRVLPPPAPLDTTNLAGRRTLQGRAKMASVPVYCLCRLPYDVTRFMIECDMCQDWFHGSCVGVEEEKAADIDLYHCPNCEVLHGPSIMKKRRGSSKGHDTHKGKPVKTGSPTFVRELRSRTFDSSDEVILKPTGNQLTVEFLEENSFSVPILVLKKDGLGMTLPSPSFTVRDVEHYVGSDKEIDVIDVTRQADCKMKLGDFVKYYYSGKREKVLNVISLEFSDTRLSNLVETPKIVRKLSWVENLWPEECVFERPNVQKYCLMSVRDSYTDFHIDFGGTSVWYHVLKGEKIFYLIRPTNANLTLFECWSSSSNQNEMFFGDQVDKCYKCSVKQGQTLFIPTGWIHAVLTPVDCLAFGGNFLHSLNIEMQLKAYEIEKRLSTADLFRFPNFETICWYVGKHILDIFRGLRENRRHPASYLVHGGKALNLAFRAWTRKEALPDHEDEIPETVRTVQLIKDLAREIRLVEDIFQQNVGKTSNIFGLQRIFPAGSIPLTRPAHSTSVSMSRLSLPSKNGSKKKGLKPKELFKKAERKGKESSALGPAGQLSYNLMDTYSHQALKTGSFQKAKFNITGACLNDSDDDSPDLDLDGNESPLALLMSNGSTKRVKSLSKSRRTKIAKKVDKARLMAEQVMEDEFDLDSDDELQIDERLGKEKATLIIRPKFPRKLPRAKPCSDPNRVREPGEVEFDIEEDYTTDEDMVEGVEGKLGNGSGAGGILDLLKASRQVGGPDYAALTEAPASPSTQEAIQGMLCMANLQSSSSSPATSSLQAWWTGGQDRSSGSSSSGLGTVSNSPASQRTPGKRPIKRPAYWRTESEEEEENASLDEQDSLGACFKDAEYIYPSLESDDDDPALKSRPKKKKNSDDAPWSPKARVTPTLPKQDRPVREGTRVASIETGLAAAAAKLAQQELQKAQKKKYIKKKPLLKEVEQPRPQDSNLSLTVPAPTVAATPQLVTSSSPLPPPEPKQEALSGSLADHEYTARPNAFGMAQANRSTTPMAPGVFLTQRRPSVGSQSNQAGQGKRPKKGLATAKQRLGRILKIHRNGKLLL
IC50 (KDM4C (JMJD2C)),IC50 (KDM5B (PLU-1)),IC50 (KDM6A (UTX)),IC50 (PHF8 (KDM7)),IC50 (KDM2B (FBXL10)),IC50 [1],Structure (SMILES)
< 250 nM,< 250 nM,> 2500 nM,250 to 2500 nM,< 250 nM,,"C[C@H](c1ccccc1)N1CCC[C@H](CNCc2cc(C(=O)O)ccn2)C1=O [Compound 2, 2-[({[(3R)-2-oxo-1-[(1R)-1-phenylethyl]piperidin-3-yl]methyl}amino)methyl]pyridine-4-carboxylic acid]"
> 2500 nM,250 to 2500 nM,> 2500 nM,< 250 nM,< 250 nM,,"C=CCN(CC=C)C(=O)[C@@H](CCS(C)(=O)=O)NCc1cc(C(=O)O)ccn1 [Compound 37, 2-({[(1R)-1-[bis(prop-2-en-1-yl)carbamoyl]-3-methanesulfonylpropyl]amino}methyl)pyridine-4-carboxylic acid]"
250 to 2500 nM,< 250 nM,,,250 to 2500 nM,< 2500 nM,"O=C(N1CC2(CC2)COC1c1ccnc(CN2CCCn3ccnc3C2)c1)C(F)(F)F (centres unmarked) [Compound 108, 2,2,2-trifluoro-1-[6-(2-{5H,6H,7H,8H,9H-imidazo[1,2-a][1,4]diazepin-8-ylmethyl}pyridin-4-yl)-5-oxa-7-azaspiro[2.5]octan-7-yl]ethan-1-one]"
250 to 2500 nM,< 250 nM,> 2500 nM,250 to 2500 nM,< 250 nM,,"COc1ccc([C@@H](C)N2CCC[C@H](CNCc3cc(C(=O)O)ccn3)C2=O)cc1 [Compound 81, 2-[({[(3R)-1-[(1R)-1-(4-methoxyphenyl)ethyl]-2-oxopiperidin-3-yl]methyl}amino)methyl]pyridine-4-carboxylic acid]"
250 to 2500 nM,< 250 nM,> 2500 nM,250 to 2500 nM,250 to 2500 nM,,"C[C@H](c1ccccc1)N1CCC[C@@H](CNCc2cc(C(=O)O)ccn2)C1=O [Compound 14, 2-[({[(3S)-2-oxo-1-[(1R)-1-phenylethyl]piperidin-3-yl]methyl}amino)methyl]pyridine-4-carboxylic acid]"
250 to 2500 nM,< 250 nM,> 2500 nM,250 to 2500 nM,< 250 nM,,"C[C@H](c1ccccc1)N1CC[C@@H](CNCc2cc(C(=O)O)ccn2)C1=O [Compound 17, 2-[({[(3S)-2-oxo-1-[(1R)-1-phenylethyl]pyrrolidin-3-yl]methyl}amino)methyl]pyridine-4-carboxylic acid]"
